Reference: patent US12509457B2, “Bicyclic nitrogen containing heterocycles as inhibitors of salt-induced kinase SIK2” (priority 2019, dated 2025)
pKi: −log10 of the molar value. Like-named read-outs stand apart in the source and are kept apart here.

Tests used:
Format in all cases: biochemical
Src = Src (Homo sapiens, UniProt P12931); test: Src kinase assay, IMAP fluorescence polarization; conditions: 50 or 100 μM ATP; average; read-out: Src-AVERAGE Ki
Abl = Abl (Homo sapiens, UniProt P00519); test: Abl kinase assay, IMAP fluorescence polarization; conditions: 50 or 100 μM ATP; average; read-out: Abl-AVERAGE Ki
EPHA2 = EPHA2 (Homo sapiens, UniProt P29317); test: EPHA2 kinase assay, IMAP fluorescence polarization
SIK2 = SIK2 (Homo sapiens, UniProt Q9H0K1); test: SIK2 kinase assay, IMAP fluorescence polarization; conditions: 50 or 100 μM ATP; average; read-out: SIK2-AVERAGE Ki
SIK3 = SIK3 (Homo sapiens, UniProt Q9Y2K2); test: SIK3 kinase assay, IMAP fluorescence polarization; conditions: 50 or 100 μM ATP; average; read-out: SIK3-AVERAGE Ki
SIK1 = SIK1 (Homo sapiens, UniProt P57059); test: SIK1 kinase assay, IMAP fluorescence polarization; conditions: 50 or 100 μM ATP; average; read-out: SIK1-AVERAGE Ki
Chain of SIK1 (P57059 whole entry): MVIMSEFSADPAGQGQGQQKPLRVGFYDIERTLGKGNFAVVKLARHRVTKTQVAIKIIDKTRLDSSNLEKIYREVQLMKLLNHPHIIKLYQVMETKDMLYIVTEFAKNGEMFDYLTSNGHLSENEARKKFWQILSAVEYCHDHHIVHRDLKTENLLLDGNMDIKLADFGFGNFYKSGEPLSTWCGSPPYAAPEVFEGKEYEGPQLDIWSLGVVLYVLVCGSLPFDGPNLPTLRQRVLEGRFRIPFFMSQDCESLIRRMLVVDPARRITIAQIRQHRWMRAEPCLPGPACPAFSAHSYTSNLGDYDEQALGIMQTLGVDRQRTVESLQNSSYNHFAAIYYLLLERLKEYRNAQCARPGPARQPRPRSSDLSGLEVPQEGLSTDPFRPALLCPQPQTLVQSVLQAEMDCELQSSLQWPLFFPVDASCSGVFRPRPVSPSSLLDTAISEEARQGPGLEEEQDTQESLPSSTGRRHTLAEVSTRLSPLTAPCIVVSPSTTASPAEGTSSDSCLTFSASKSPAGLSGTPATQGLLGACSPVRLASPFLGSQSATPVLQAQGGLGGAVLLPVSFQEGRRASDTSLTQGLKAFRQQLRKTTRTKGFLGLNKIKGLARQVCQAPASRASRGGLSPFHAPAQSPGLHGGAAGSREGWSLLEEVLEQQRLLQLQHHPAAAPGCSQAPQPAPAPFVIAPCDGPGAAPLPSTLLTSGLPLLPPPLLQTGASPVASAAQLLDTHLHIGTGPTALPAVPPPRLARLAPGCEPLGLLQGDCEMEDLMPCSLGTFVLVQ

Chain of Abl (P00519 whole entry): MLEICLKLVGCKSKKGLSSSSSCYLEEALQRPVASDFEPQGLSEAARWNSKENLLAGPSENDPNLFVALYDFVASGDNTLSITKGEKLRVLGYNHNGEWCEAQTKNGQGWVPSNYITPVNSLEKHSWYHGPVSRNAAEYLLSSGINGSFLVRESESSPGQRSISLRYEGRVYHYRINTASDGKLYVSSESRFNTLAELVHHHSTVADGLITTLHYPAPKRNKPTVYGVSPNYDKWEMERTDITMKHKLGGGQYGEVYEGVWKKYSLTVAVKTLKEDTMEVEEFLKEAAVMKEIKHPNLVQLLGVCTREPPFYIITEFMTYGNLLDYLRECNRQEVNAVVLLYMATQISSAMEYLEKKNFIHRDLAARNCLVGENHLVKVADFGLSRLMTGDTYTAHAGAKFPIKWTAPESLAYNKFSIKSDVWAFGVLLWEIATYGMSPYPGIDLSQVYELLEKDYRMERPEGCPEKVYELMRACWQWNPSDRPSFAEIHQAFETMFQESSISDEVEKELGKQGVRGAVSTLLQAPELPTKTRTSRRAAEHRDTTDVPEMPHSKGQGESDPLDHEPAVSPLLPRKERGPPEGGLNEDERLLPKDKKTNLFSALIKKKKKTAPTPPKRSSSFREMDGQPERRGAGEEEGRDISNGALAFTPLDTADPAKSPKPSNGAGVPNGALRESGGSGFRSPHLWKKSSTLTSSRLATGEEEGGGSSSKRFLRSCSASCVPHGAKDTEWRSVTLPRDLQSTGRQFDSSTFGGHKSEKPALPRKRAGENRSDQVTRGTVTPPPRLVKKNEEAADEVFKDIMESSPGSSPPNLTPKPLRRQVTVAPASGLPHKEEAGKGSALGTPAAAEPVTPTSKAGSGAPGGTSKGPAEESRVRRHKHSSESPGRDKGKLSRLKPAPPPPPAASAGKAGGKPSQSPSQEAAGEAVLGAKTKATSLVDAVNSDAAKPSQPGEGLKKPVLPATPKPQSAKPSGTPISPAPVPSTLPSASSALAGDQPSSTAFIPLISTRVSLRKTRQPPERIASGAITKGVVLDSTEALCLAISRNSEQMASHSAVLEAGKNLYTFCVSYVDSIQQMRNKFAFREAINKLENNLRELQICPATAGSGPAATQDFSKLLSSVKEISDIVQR
Chain of SIK3 (Q9Y2K2 whole entry): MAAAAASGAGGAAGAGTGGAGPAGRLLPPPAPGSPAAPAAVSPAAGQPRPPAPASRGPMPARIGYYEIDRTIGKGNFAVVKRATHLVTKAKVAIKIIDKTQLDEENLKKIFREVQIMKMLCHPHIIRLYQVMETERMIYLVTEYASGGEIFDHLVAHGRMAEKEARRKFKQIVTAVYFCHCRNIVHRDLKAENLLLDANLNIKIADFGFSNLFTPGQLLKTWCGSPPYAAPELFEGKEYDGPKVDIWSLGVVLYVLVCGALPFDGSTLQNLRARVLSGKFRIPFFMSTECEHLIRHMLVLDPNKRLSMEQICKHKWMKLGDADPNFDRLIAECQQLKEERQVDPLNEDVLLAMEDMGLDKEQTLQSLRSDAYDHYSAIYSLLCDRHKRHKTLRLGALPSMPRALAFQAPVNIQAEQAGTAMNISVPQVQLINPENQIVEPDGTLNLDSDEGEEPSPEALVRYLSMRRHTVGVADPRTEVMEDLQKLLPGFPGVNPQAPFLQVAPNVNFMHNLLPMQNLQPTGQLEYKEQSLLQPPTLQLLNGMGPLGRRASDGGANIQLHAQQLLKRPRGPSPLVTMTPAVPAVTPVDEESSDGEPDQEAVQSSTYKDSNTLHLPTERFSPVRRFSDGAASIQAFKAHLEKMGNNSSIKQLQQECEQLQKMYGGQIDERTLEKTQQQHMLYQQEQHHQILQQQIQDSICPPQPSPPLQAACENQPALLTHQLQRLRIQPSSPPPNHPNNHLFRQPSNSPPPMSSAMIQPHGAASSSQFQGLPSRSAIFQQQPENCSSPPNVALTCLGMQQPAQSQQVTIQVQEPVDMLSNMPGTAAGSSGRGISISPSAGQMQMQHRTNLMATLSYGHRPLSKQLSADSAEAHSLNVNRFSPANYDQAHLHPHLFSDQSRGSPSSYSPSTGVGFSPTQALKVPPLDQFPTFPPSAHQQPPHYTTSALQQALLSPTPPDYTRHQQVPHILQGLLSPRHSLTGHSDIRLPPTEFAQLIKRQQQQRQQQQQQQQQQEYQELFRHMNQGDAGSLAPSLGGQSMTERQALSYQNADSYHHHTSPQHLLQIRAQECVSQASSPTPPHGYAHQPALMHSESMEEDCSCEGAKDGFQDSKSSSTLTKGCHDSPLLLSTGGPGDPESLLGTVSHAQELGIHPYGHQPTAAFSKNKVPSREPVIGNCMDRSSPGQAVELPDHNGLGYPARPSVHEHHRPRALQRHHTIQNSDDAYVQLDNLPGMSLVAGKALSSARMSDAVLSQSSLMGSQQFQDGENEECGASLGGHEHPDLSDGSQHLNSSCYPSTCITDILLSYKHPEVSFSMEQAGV
Chain of Src (P12931 whole entry): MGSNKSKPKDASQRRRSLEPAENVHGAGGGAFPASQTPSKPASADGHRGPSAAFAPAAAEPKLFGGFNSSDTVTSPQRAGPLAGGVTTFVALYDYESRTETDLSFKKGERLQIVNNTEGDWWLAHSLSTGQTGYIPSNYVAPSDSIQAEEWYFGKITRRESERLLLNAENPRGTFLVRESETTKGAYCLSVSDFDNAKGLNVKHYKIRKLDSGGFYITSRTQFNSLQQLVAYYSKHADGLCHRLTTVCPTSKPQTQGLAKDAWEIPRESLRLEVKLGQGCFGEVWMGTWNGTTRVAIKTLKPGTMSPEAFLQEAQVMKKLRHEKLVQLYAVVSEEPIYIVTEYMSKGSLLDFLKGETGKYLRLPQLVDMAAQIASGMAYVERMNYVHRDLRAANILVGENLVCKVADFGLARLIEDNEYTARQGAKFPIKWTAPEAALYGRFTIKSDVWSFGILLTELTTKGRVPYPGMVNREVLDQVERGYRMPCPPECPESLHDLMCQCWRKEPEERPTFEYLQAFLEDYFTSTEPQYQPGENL
Chain of SIK2 (Q9H0K1 whole entry): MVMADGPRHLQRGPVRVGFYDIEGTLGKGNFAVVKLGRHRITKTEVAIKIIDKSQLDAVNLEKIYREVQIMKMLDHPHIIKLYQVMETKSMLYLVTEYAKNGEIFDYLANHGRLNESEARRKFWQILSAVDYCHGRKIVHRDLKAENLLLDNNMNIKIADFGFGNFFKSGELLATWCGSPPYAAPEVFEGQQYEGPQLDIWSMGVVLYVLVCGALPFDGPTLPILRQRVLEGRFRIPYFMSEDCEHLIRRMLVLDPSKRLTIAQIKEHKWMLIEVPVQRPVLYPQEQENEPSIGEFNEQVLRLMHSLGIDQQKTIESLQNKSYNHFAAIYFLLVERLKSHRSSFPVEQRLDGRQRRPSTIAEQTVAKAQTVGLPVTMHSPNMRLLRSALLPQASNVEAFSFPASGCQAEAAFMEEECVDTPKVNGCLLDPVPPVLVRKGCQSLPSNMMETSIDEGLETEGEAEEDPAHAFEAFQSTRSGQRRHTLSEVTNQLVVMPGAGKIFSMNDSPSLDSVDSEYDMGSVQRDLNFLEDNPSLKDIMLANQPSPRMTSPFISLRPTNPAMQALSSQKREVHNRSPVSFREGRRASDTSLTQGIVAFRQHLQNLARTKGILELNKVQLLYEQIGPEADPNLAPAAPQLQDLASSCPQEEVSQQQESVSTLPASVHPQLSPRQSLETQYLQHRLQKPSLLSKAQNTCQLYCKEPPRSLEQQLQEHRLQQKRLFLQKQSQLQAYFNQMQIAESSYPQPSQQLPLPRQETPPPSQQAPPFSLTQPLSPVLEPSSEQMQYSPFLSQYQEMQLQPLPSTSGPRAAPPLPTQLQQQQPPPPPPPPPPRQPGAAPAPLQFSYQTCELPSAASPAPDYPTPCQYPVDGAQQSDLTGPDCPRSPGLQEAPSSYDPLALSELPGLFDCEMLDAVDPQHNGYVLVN

## Cc1cccc(F)c1N1Cc2cnc(N(C)C)cc2N([C@H]2CC[C@@H](N(C)C)CC2)C1=O [Example 41, cis-7-(dimethylamino)-1-[4-(dimethylamino)cyclohexyl]-3-(2-fluoro-6-methyl-phenyl)-4H-pyrido[4,3-d]pyrimidin-2-one]
Src
  pKi: < 5.00
Abl
  pKi: < 5.00
EPHA2; 50 or 100 μM ATP, average
  pKi: < 5.00
SIK2
  pKi: 6.99
SIK3
  pKi: 6.25
SIK1
  pKi: 6.32

## CNc1cc2c(cn1)CN(c1c(C)cccc1F)C(=O)N2[C@H]1CC[C@@H](N(C)C)CC1 [Example 40, cis-1-[4-(dimethylamino)cyclohexyl]-3-(2-fluoro-6-methyl-phenyl)-7-(methylamino)-4H-pyrido[4,3-d]pyrimidin-2-one]
Src
  pKi: 6.20
Abl
  pKi: 7.20
EPHA2; 50 or 100 μM ATP, average
  pKi: 6.98
SIK2
  pKi: 8.90
SIK3
  pKi: 7.73
SIK1
  pKi: 8.41

## Cc1cccc(F)c1N1Cc2cnc(N)cc2N([C@H]2CCCN(C)CC2)C1=O [Example 86, 7-amino-3-(2-fluoro-6-methyl-phenyl)-1-[(4S)-1-methylazepan-4-yl]-4H-pyrido[4,3-d]pyrimidin-2-one]
Src
  pKi: 6.19
Abl
  pKi: 7.02
EPHA2; 50 or 100 μM ATP, average
  pKi: 6.30
SIK2
  pKi: 9.23
SIK3
  pKi: 8.21
SIK1
  pKi: 8.73

## Cc1cccc(Cl)c1N1Cc2cnc(N)nc2N(C2CNC2)C1=O [Example 14, 7-amino-1-(azetidin-3-yl)-3-(2-chloro-6-methyl-phenyl)-4H-pyrimido[4,5-d]pyrimidin-2-one]
Src
  pKi: 7.02
Abl
  pKi: 7.37
EPHA2; 50 or 100 μM ATP, average
  pKi: 6.75
SIK2
  pKi: 8.78
SIK3
  pKi: 8.02
SIK1
  pKi: 8.24

## Cc1cccc(F)c1N1Cc2cnc(N)nc2N([C@@H]2CCN(C)C2)C1=O [Example 31, 7-amino-3-(2-fluoro-6-methyl-phenyl)-1-[(3R)-1-methylpyrrolidin-3-yl]-4H-pyrimido[4,5-d]pyrimidin-2-one]
Src
  pKi: < 5.00
Abl
  pKi: 6.28
EPHA2
  pKi: 6.64
SIK2
  pKi: 8.32
SIK3
  pKi: 7.20
SIK1
  pKi: 8.08

## Cc1cccc(F)c1N1Cc2cnc(N)nc2N([C@H]2CC[C@H](N)CC2)C1=O [Example 77, 7-amino-1-(4-aminocyclohexyl)-3-(2-fluoro-6-methyl-phenyl)-4H-pyrimido[4,5-d]pyrimidin-2-one]
Src
  pKi: 7.19
Abl
  pKi: 7.56
EPHA2; 50 or 100 μM ATP, average
  pKi: 7.76
SIK2
  pKi: 9.65
SIK3
  pKi: 9.13
SIK1
  pKi: 9.16

## Cc1cccc(F)c1N1Cc2cnc(N)cc2N([C@@H]2CCNC2)C1=O [Example 47, 7-Amino-3-(2-fluoro-6-methyl-phenyl)-1-[(3R)-pyrrolidin-3-yl]-4H-pyrido[4,3-d]pyrimidin-2-one]
Src
  pKi: < 6.00
Abl
  pKi: < 6.00
EPHA2; 50 or 100 μM ATP, average
  pKi: 6.61
SIK2
  pKi: 8.88
SIK3
  pKi: 7.78
SIK1
  pKi: 8.59

## Cc1cccc(F)c1N1Cc2cnc(N)cc2N([C@@H]2CCCNCC2)C1=O [Example 51, 7-amino-3-(2-fluoro-6-methyl-phenyl)-1-[(4R)-azepan-4-yl]-4H-pyrido[4,3-d]pyrimidin-2-one]
Src
  pKi: 7.04
Abl
  pKi: 7.98
EPHA2; 50 or 100 μM ATP, average
  pKi: 7.51
SIK2
  pKi: 9.74
SIK3
  pKi: 9.09
SIK1
  pKi: 9.39

## Cc1cccc(F)c1N1Cc2cnc(N)nc2N([C@H]2CCN(C)C2)C1=O [Example 30, 7-amino-3-(2-fluoro-6-methyl-phenyl)-1-[(3S)-1-methylpyrrolidin-3-yl]-4H-pyrimido[4,5-d]pyrimidin-2-one]
Src
  pKi: 5.73
Abl
  pKi: 6.35
EPHA2
  pKi: 7.11
SIK2
  pKi: 8.42
SIK3
  pKi: 7.19
SIK1
  pKi: 7.92

## Cc1cccc(F)c1N1Cc2cnc(N)cc2N([C@@H]2CCN(C)C2)C1=O [Example 80, 7-amino-3-(2-fluoro-6-methyl-phenyl)-1-[(3R)-1-methylpyrrolidin-3-yl]-4H-pyrido[4,3-d]pyrimidin-2-one]
Src
  pKi: < 5.00
Abl
  pKi: 6.45
EPHA2
  pKi: 6.53
SIK2
  pKi: 8.67
SIK3
  pKi: 7.42
SIK1
  pKi: 8.49

## Cc1cccc(F)c1N1Cc2cnc(N)cc2N([C@@H]2CCCN(C)CC2)C1=O [Example 84, 7-amino-3-(2-fluoro-6-methyl-phenyl)-1-[(4R)-1-methylazepan-4-yl]-4H-pyrido[4,3-d]pyrimidin-2-one]
Src
  pKi: 6.90
Abl
  pKi: 7.83
EPHA2; 50 or 100 μM ATP, average
  pKi: 7.49
SIK2
  pKi: 9.85
SIK3
  pKi: 9.52
SIK1
  pKi: 9.33

## Cc1cccc(F)c1N1Cc2cnc(N)nc2N(C2CCC(N)C2)C1=O (stereo not drawn) [Example 76, 7-amino-1-(3-aminocyclopentyl)-3-(2-fluoro-6-methyl-phenyl)-4H-pyrimido[4,5-d]pyrimidin-2-one]
Src
  pKi: 7.53
Abl
  pKi: 8.37
EPHA2; 50 or 100 μM ATP, average
  pKi: 8.04
SIK2
  pKi: 9.69
SIK3
  pKi: 8.93
SIK1
  pKi: 9.21

## Cc1cccc(F)c1N1Cc2cnc(N)cc2N([C@H]2CC[C@@H](N(C)C)CC2)C1=O [Example 46, cis-7-Amino-1-[4-(dimethylamino)cyclohexyl]-3-(2-fluoro-6-methyl-phenyl)-4H-pyrido[4,3-d]pyrimidin-2-one]
Src
  pKi: 6.79
Abl
  pKi: 7.37
EPHA2; 50 or 100 μM ATP, average
  pKi: 7.07
SIK2
  pKi: 9.63
SIK3
  pKi: 8.93
SIK1
  pKi: 9.42

## Cc1cccc(F)c1N1Cc2cnc(N)cc2N([C@@H]2CCCNC2)C1=O [Example 48, 7-amino-3-(2-fluoro-6-methyl-phenyl)-1-[(3R)-3-piperidyl]-4H-pyrido[4,3-d]pyrimidin-2-one]
Src
  pKi: 6.88
Abl
  pKi: < 6.00
EPHA2
  pKi: 7.16
SIK2
  pKi: 9.46
SIK3
  pKi: 8.40
SIK1
  pKi: 8.90

## CNc1cc2c(cn1)CN(c1c(C)cccc1F)C(=O)N2C1CN(C)C1 [Example 10, 3-(2-Fluoro-6-methyl-phenyl)-7-(methylamino)-1-(1-methylazetidin-3-yl)-4H-pyrido[4,3-d]pyrimidin-2-one]
Src
  pKi: < 6.00
Abl
  pKi: < 6.00
EPHA2; 50 or 100 μM ATP, average
  pKi: < 6.00
SIK2
  pKi: 7.83
SIK3
  pKi: 6.75
SIK1
  pKi: 7.17

## Cc1cccc(F)c1N1Cc2cnc(N)cc2N([C@H]2CCC[C@H](N)C2)C1=O (relative stereo) [Example 55, 7-amino-1-[(trans)-3-aminocyclohexyl]-3-(2-fluoro-6-methyl-phenyl)-4H-pyrido[4,3-d]pyrimidin-2-one]
Src
  pKi: 7.48
Abl
  pKi: 7.85
EPHA2; 50 or 100 μM ATP, average
  pKi: 8.14
SIK2
  pKi: 9.44
SIK3
  pKi: 8.33
SIK1
  pKi: 8.90

## Cc1cccc(F)c1N1Cc2cnc(N)nc2N([C@@H]2CCNC2)C1=O [Example 67, 7-amino-3-(2-fluoro-6-methyl-phenyl)-1-[(3R)-pyrrolidin-3-yl]-4H-pyrimido[4,5-d]pyrimidin-2-one]
Src
  pKi: < 5.00
Abl
  pKi: 6.58
EPHA2; 50 or 100 μM ATP, average
  pKi: 6.90
SIK2
  pKi: 8.50
SIK3
  pKi: 7.38
SIK1
  pKi: 8.23

## Cc1cccc(F)c1N1Cc2cnc(N)nc2N([C@H]2CCCNCC2)C1=O [Example 69, 7-amino-1-[(4S)-azepan-4-yl]-3-(2-fluoro-6-methyl-phenyl)-4H-pyrimido[4,5-d]pyrimidin-2-one]
Src
  pKi: 7.35
Abl
  pKi: 7.71
EPHA2; 50 or 100 μM ATP, average
  pKi: 7.83
SIK2
  pKi: 10.00
SIK3
  pKi: 9.03
SIK1
  pKi: 9.39

## Cc1cccc(F)c1N1Cc2cnc(N)nc2N([C@@H]2CCCCN(C)C2)C1=O [Example 38, 7-amino-3-(2-fluoro-6-methyl-phenyl)-1-[(3R)-1-methylazepan-3-yl]-4H-pyrimido[4,5-d]pyrimidin-2-one]
Src
  pKi: 6.17
Abl
  pKi: 6.84
EPHA2; 50 or 100 μM ATP, average
  pKi: 6.72
SIK2
  pKi: 8.57
SIK3
  pKi: 7.33
SIK1
  pKi: 8.02

## CN[C@H]1CC[C@@H](N2C(=O)N(c3c(C)cccc3F)Cc3cnc(N)cc32)CC1 [Example 63, cis-7-amino-3-(2-fluoro-6-methyl-phenyl)-1-[4-(methylamino)cyclohexyl]-4H-pyrido[4,3-d]pyrimidin-2-one]
Src
  pKi: 7.39
Abl
  pKi: 7.96
EPHA2; 50 or 100 μM ATP, average
  pKi: 7.24
SIK2
  pKi: 9.17
SIK3
  pKi: 8.33
SIK1
  pKi: 8.66

## CN[C@H]1CC[C@@H](N2C(=O)N(c3c(C)cccc3F)Cc3cnc(N)nc32)CC1 [Example 60, cis-7-Amino-3-(2-fluoro-6-methyl-phenyl)-1-[4-(methylamino)cyclohexyl]-4H-pyrimido[4,5-d]pyrimidin-2-one]
Src
  pKi: 7.13
Abl
  pKi: 7.74
EPHA2; 50 or 100 μM ATP, average
  pKi: 7.40
SIK2
  pKi: 9.33
SIK3
  pKi: 8.59
SIK1
  pKi: 8.86

## Cc1cccc(F)c1N1Cc2cnc(N)nc2N([C@@H]2CCCCNC2)C1=O [Example 72, 7-amino-1-[(3R)-azepan-3-yl]-3-(2-fluoro-6-methyl-phenyl)-4H-pyrimido[4,5-d]pyrimidin-2-one]
Src
  pKi: 7.30
Abl
  pKi: 7.70
EPHA2; 50 or 100 μM ATP, average
  pKi: 7.63
SIK2
  pKi: 8.94
SIK3
  pKi: 7.68
SIK1
  pKi: 8.71

## Cc1cccc(F)c1N1Cc2cnc(N)nc2N([C@H]2CC[C@@H](N(C)C)CC2)C1=O [Example 39, cis-7-amino-1-[4-(dimethylamino)cyclohexyl]-3-(2-fluoro-6-methyl-phenyl)-4H-pyrimido[4,5-d]pyrimidin-2-one]
Src
  pKi: 7.07
Abl
  pKi: 7.49
EPHA2; 50 or 100 μM ATP, average
  pKi: 7.45
SIK2
  pKi: 9.35
SIK3
  pKi: 8.41
SIK1
  pKi: 8.78
